Results: US20140135310A1, “SULPHONAMIDE DERIVATIVES OF ALICYCLIC AMINES FOR THE TREATMENT OF CENTRAL NERVOUS SYSTEM DISEASES” (Adamed Sp. z o.o., priority 2011, published 2014)

Tests used:
[1] = target: dopaminergic receptors D2 (Homo sapiens, UniProt P14416); assay: Radioligand binding assay, dopaminergic D2 receptors; settings: binding assay, test compound 1×10^−6 M
Summary of the method: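 Displacement of radioligand from human dopamine D2, D3 or D4.4 receptors, counted by scintillation; specific binding is total minus binding under excess unlabelled ligand. IC50 values come from Hill curve fits of percent inhibition, then converted to Ki by Cheng-Prusoff using Scatchard-derived KD.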

[2] = target: dopaminergic receptors D3 (Homo sapiens, UniProt P35462); assay: Radioligand binding assay, dopaminergic D3 receptors; settings: test compound 1×10^−6 M
Summary of the method: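 Scintillation read-out. Specific = total − nonspecific (excess cold ligand). Data as % of control specific binding / % inhibition; IC50 by Hill fit; Ki = IC50/(1+L/KD), KD from Scatchard plot.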

[3] = target: T1, 5-HT1A receptor (rat hippocampus) (Rattus norvegicus, UniProt P19327); assay: Radioligand binding assay, serotoninergic 5-HT1A receptors; settings: binding assay result in %, Table 5a;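 note: test compound at 1 µM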
T1 construct: hippocampus; from tissue; host or cells: rat hippocampus
T1 sequence (P19327 1-422): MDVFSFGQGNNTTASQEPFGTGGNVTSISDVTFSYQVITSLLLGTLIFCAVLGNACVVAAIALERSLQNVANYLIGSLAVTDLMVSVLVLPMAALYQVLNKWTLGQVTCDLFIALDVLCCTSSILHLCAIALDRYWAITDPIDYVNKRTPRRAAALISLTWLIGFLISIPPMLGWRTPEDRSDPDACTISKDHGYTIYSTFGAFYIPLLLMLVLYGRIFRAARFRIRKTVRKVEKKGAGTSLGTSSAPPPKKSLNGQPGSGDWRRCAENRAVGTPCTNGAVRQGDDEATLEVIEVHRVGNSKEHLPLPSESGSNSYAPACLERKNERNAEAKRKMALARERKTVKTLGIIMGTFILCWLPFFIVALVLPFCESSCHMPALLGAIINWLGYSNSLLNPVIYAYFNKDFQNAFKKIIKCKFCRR

5-HT2A receptor = target: T2, 5-HT2A receptor (Homo sapiens, UniProt P28223); assay: Radioligand binding assay, serotoninergic 5-HT2A receptors; settings: binding assay result in %, Table 5a
T2 construct: purchased PerkinElmer
Summary of the method: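 Competition curves from scintillation-counted specific binding (total minus binding with excess unlabelled ligand) were Hill-fitted to give IC50, converted to Ki via Cheng-Prusoff using Scatchard-derived Kd.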

5-HT6 receptor = target: T3, 5-HT6 receptor (Homo sapiens, UniProt P50406); assay: Radioligand binding assay, serotoninergic 5-HT6 receptors; settings: binding assay result in %, Table 5a;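 note: test compound at 1 µM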
T3 construct: purchased PerkinElmer
Summary of the method: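 Values are Ki from Cheng–Prusoff, taking IC50 from Hill nonlinear regression of competition curves and KD from a Scatchard plot. Specific binding was total minus binding with excess unlabelled ligand. Radioligand displacement was detected by scintillation counting, and data were also reported as percent of control specific binding.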

5-HT7 receptor = target: T4, 5-HT7 receptor (Homo sapiens, UniProt P34969); assay: Radioligand binding assay, serotoninergic 5-HT7 receptors; settings: binding assay result in %, Table 5a;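 note: test compound at 1 µM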
T4 construct: purchased PerkinElmer
Summary of the method: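 Ki values used the Cheng–Prusoff equation, with KD from Scatchard analysis, applied to IC50 from Hill fits of human 5-HT7 radioligand competition curves. Bound radioligand was counted by scintillation, and excess unlabelled ligand set the non-specific binding.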

[4] = test system: α1 adrenergic receptors (rat cerebral cortex); assay: Radioligand binding assay, adrenergic α1 receptors; settings: test compound 1×10^−6 M
From the text: The specific ligand binding to the receptors is defined as the difference between the total binding and the non-specific binding determined in the presence of the excess of unlabelled ligand.
The results are expressed as a percent of control specific binding ((measured specific binding/control specific binding)×100) and as a percent inhibition of control specific binding (100−((measured specific binding/control specific binding)×100)) obtained in the presence of the test compounds. The specific ligand binding to the receptors is defined as the difference between the total binding and the nonspecific binding determined in the presence of an excess of unlabelled ligand. Scintillation counting was the method of detection of ligand binding. The IC50 values (concentration causing a half-maximal inhibition of control specific binding) were determined by non-linear regression analysis of the competition curves generated with mean replicate values using Hill equation curve fitting (Y=D+[(A−D)/(1+(C/C50)nH)], where Y=specific binding, D=minimum specific binding, A=maximum specific binding, C=compound concentration, C50=IC50, and nH=slope factor). […] The inhibition constants (Ki) were calculated using the Cheng Prusoff equation (Ki=IC50/(1+(L/KD)), where L=concentration of radioligand in the assay, and KD=affinity of the radioligand for the receptor). A scatchard plot was used to determine the Kd.

[5] = target: T5, serotonin transporter (SERT) (Homo sapiens, UniProt P31645); assay: Radioligand binding assay, serotonin transporter (SERT); settings: binding assay, test compound 1×10^−6 M
T5 construct: expressed in transfected cells; host or cells: CHO cells
Summary of the method: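 Values are derived from competition curves fitted by the Hill equation to give IC50, then converted to Ki by Cheng-Prusoff with radioligand Kd from Scatchard analysis. Specific binding equals total minus non-specific (excess cold ligand), counted by scintillation, and is also expressed as percent inhibition of control.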

T2 sequence (P28223 whole entry): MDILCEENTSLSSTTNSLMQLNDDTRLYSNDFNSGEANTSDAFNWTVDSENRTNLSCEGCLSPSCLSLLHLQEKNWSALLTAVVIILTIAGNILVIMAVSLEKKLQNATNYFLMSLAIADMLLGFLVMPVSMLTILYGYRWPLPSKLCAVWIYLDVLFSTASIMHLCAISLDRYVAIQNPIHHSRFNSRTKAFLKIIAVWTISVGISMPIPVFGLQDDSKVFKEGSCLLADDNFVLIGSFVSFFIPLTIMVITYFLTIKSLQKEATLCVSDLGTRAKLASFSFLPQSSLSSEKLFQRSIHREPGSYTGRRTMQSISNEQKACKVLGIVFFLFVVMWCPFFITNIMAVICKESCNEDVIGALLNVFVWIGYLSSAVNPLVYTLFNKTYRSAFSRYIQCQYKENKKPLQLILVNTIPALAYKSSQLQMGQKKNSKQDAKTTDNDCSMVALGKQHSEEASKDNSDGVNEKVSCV
T4 sequence (P34969 whole entry): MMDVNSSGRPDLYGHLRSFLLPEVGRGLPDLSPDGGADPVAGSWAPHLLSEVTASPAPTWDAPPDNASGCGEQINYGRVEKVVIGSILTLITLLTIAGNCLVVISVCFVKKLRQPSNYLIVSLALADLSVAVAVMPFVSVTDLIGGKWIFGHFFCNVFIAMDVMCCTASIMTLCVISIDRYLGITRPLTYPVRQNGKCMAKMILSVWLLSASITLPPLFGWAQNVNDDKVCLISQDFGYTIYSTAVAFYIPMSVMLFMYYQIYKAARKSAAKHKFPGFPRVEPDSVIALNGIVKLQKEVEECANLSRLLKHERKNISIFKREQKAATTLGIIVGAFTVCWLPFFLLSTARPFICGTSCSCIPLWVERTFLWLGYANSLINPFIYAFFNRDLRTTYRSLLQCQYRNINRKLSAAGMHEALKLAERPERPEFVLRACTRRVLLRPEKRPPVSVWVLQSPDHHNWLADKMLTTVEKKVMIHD
T5 sequence (P31645 whole entry): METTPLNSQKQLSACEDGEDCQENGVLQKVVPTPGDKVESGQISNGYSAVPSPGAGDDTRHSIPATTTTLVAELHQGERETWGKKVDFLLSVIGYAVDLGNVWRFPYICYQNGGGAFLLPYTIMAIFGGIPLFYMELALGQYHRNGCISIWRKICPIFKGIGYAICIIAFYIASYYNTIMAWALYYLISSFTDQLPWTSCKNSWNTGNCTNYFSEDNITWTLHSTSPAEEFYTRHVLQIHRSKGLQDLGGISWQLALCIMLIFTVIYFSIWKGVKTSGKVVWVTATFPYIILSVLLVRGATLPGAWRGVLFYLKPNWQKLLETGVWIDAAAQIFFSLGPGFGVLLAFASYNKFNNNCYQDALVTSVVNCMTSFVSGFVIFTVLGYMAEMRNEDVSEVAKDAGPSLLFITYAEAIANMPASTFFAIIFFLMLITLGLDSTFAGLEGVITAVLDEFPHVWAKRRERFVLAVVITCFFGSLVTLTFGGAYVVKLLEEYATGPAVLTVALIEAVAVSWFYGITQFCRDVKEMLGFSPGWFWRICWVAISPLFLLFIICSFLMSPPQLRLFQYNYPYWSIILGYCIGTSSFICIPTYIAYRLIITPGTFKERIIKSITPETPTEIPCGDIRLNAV
Sequence of dopaminergic receptors D2 (P14416 whole entry): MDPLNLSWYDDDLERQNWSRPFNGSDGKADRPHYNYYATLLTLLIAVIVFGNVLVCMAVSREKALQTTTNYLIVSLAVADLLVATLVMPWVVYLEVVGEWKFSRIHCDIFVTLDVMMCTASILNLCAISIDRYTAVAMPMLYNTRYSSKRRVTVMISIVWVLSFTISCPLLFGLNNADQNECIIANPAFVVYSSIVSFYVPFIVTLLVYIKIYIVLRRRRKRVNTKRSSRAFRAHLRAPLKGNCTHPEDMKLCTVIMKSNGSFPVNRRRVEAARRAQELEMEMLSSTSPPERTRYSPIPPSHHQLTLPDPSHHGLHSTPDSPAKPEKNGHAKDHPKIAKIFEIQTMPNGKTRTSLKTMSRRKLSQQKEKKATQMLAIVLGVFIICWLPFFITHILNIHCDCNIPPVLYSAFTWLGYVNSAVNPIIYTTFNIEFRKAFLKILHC
T3 sequence (P50406 whole entry): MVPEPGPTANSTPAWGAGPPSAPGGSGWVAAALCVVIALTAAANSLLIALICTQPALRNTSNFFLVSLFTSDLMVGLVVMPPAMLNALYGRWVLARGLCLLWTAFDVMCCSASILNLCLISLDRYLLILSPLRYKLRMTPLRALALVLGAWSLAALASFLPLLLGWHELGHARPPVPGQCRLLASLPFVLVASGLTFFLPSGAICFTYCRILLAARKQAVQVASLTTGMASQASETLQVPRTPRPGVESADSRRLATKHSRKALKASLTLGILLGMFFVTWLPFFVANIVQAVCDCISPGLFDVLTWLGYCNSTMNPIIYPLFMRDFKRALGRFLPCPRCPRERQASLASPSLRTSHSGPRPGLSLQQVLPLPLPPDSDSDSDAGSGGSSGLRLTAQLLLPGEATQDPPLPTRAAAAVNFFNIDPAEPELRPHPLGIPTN
Sequence of dopaminergic receptors D3 (P35462 whole entry): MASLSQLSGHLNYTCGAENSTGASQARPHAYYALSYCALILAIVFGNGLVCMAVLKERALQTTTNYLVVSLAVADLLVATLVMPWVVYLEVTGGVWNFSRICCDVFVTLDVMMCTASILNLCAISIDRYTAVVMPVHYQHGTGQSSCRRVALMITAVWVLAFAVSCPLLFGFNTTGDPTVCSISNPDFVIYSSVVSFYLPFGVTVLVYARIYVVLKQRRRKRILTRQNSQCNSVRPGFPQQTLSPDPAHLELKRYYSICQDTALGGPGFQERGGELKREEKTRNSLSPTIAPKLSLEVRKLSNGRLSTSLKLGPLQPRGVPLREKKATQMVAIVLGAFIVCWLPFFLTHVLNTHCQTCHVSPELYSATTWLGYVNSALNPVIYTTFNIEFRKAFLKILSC

Row | Compound | inhibition at 1 µM [1] [%] | inhibition at 1 µM [2] [%] | inhibition at 1 µM [3] [%] | inhibition at 1 µM (5-HT2A receptor) [%] | inhibition at 1 µM (5-HT6 receptor) [%] | inhibition at 1 µM (5-HT7 receptor) [%] | α1 [%] [4] [%] | inhibition at 1 µM [5] [%] | D2 [%] [1] [%] | D3 [%] [2] [%] | 5-HT1A [%] [3] [%] | 5-HT2A [%] (5-HT2A receptor) | 5-HT6 [%] (5-HT6 receptor) | 5-HT7 [%] (5-HT7 receptor) | SERT [%] [5] [%]
1 | O=S(=O)(NC1CCN(CCCc2noc3cc(F)ccc23)C1)c1ccc2c(c1)OCC2 (stereo not drawn) [Compound 24, N-[1-[3-(6-Fluoro-1,2-benzoxazol-3-yl)propyl]pyrrolidin-3-yl]-2,3-dihydrobenzofuran-6-sulphonamide] | 94 | 52 | 19 | 95 | 78 | 82 | 101 | -10 |  |  |  |  |  |  | 
2 | O=S(=O)(NC1CCN(CCCc2noc3cc(F)ccc23)C1)c1cnc2ccccn12 (stereo not drawn) [Compound 30, N-[1-[3-(6-Fluoro-1,2-benzoxazol-3-yl)propyl]pyrrolidin-3-yl]imidazo-[1,2-a]pyridine-3-sulphonamide] | 62 | -2 | 5 | 95 | 77 | 82 | 84 | 36 |  |  |  |  |  |  | 
3 | O=S(=O)(NC1CCN(CCCc2noc3cc(F)ccc23)CC1)c1ccc2ccccc2c1 [Compound 35, N-[1-[3-(6-Fluoro-1,2-benzoxazol-3-yl)propyl]-4-piperidine]-naphthalene-2-sulphonamide] |  |  |  |  |  |  | 99 |  | 77 | 56 | 28 | 91 | 97 | 98 | 29
4 | Cc1cccc(S(=O)(=O)NCC2CCN(CCCc3noc4cc(F)ccc34)CC2)c1 [Compound 36, N-[[1-[3-(6-Fluoro-1,2-benzoxazol-3-yl)propyl]-4-piperidine]methyl]-3-methylbenzenesulphonamide] |  |  |  |  |  |  | 103 |  | 57 | 38 | 18 | 59 | 75 | 88 | 0
5 | O=S(=O)(NCC1CCN(CCCc2noc3cc(F)ccc23)CC1)c1cccc2ccccc12 [Compound 37, N-[[1-[3-(6-Fluoro-1,2-benzoxazol-3-yl)propyl]-4-piperidine]methyl]-naphthalene-1-sulphonamide] |  |  |  |  |  |  | 96 |  | 83 | 66 | 29 | 56 | 97 | 94 | 30
6 | O=S(=O)(NCC1CCN(CCCc2noc3cc(F)ccc23)CC1)c1ccc2ccccc2c1 [Compound 38, N-[[1-[3-(6-Fluoro-1,2-benzoxazol-3-yl)propyl]-4-piperidine]methyl]-naphthalene-2-sulphonamide] |  |  |  |  |  |  | 98 |  | 77 | 64 | 25 | 82 | 104 | 94 | 17
7 | O=S(=O)(NC1CCN(CCOc2nsc3ccccc23)CC1)c1ccc2ccccc2c1 [Compound 40, N-[1-[2-(1,2-Benzothiazol-3-yloxy)ethyl]-4-piperidine]naphthalene-2-sulphonamide] |  |  |  |  |  |  | 12 |  | 49 | 39 | 68 | 102 | 72 | 85 | −5
8 | O=S(=O)(NCC1CCN(CCOc2nsc3ccccc23)C1)c1cccc(O)c1 (stereo not drawn) [Compound 43, N-[[1-[2-(1,2-Benzothiazol-3-yloxy)ethyl]pyrrolidin-3-yl]methyl]-3-hydroxy-benzenesulphonamide] | 55 | 29 | 83 | 81 | 87 | 71 | 68 | -7 |  |  |  |  |  |  | 
9 | O=S(=O)(NCC1CCN(CCOc2nsc3ccccc23)C1)c1ccc2ccccc2c1 (stereo not drawn) [Compound 44, N-[[1-[2-(1,2-Benzothiazol-3-yloxy)ethyl]pyrrolidin-3-yl]methyl]naphthalene-2-sulphonamide] | 76 | 52 | 62 | 78 | 81 | 68 | 46 | 25 |  |  |  |  |  |  | 
10 | O=S(=O)(NC1CN(CCOc2cccc3[nH]ccc23)C1)c1ccccc1 [Compound 45, N-[1-[2-(1H-indol-4-yloxy)ethyl]azetidin-3-yl]benzenesulphonamide] | 53 | 87 | 88 | 75 | 0 | 93 | 72 | -4 |  |  |  |  |  |  | 
11 | O=S(=O)(NC1CCN(CCOc2cccc3[nH]ccc23)C1)c1ccccc1 (stereo not drawn) [Compound 51, N-[1-[2-(1H-Indol-4-yloxy)ethyl]pyrrolidin-3-yl]benzenesulphonamide] | 54 | 103 | 91 | 67 | 10 | 101 | 77 | 6 |  |  |  |  |  |  | 
12 | Cc1cccc(S(=O)(=O)NC2CCN(CCOc3cccc4[nH]ccc34)C2)c1 (stereo not drawn) [Compound 52, N-[1-[2-(1H-Indol-4-yloxy)ethyl]pyrrolidin-3-yl]-3-methylbenzene-sulphonamide] | 77 | 106 | 90 | 89 | 41 | 90 | 81 | 38 |  |  |  |  |  |  | 
13 | O=S(=O)(NC1CCN(CCOc2cccc3[nH]ccc23)C1)c1cccc2ccccc12 (stereo not drawn) [Compound 53, N-[1-[2-(1H-indol-4-yloxy)ethyl]pyrrolidin-3-yl]naphthalene-1-sulphonamide] | 74 | 99 | 90 | 85 | 54 | 102 | 88 | 56 |  |  |  |  |  |  | 
14 | O=S(=O)(NC1CCN(CCOc2cccc3[nH]ccc23)C1)c1ccc2ccccc2c1 (stereo not drawn) [Compound 54, N-[1-[2-(1H-Indol-4-yloxy)ethyl]pyrrolidin-3-yl]naphthalene-2-sulphonamide] | 83 | 105 | 90 | 88 | 87 | 102 | 90 | 46 |  |  |  |  |  |  | 
15 | Cc1cccc(S(=O)(=O)NC2CCN(CCOc3cccc4[nH]ccc34)CC2)c1 [Compound 56, N-[1-[2-(1H-Indol-4-yloxy)ethyl]-4-piperidine]-3-methylbenzene-sulphonamide] |  |  |  |  |  |  | 74 |  | 34 | 98 | 75 | 84 | 36 | 106 | 15
